Reference: US6958342B2, “Polymorphs of N-methyl-N-(3-{3-[2-thienylcarbonyl]-pyrazol-[1,5-α]-pyrimidin-7-yl}phenyl)acetamide and compositions and methods related thereto” (Neurocrine Biosciences, Inc., priority 1999, dated 2005)

Assays:
[1] = Approximate solubility of Form I and Form II in various solvents; type: physicochemical
Source text: In addition, the lower melting point polymorph, Form II, also has significant advantages over the polymorphic mixture of Compound 1 as prepared according to known techniques. […] Form II is generally more soluble in polar and protic solvents than is Form I. Enhanced solubility of a compound will generally increase the bioavailability of that compound. When absorption of a drug is dissolution rate limited, use of the more soluble and faster dissolving form improves the rate and extent of bioavailability.

[2] = Physical (polymorphic) stability of the solid form; type: physicochemical; conditions: stability toward conversion to a different polymorphic form; compared with the polymorphic mixture of Compound 1
Source text: The polymorph Form I is considered a heat stable form of Compound 1. By “heat stable” or “physically stable” is meant that the Form I is stable toward conversion to the polymorph Form II; although, it may be labile toward degradation to other compounds.
As the higher melting point polymorph, Form I has significant advantages over the polymorphic mixture of Compound 1 prepared according to known techniques. […] This, in turn, enhances the milling and compaction properties of the drug substance.

N-methyl-N-(3-{3-[2-thienylcarbonyl]-pyrazol-[1,5-α]-pyrimidin-7-yl}phenyl)acetamide [Form I]
Solubility ([1]; Acetone): 4842 µg/mL | Solubility ([1]; Acetonitrile): 6246 µg/mL | Solubility ([1]; De-ionized water): 8.3 µg/mL | Solubility ([1]; Diethyl ether): 80 µg/mL | Solubility ([1]; Ethanol, absolute (100%)): 1426 µg/mL | Solubility ([1]; Ethyl acetate): 1600 µg/mL | Solubility ([1]; Hexane): 41 µg/mL | Solubility ([1]; Isopropanol): 441 µg/mL | Solubility ([1]; Methanol): 1740 µg/mL | Solubility ([1]; Polyethylene Glycol 400, NF): 3259 µg/mL | Solubility ([1]; Tetrahydrofuran): 9964 µg/mL | Solubility ([1]; Toluene): 997 µg/mL | Physical stability, in words [2]: superior physical stability

N-methyl-N-(3-{3-[2-thienylcarbonyl]-pyrazol-[1,5-α]-pyrimidin-7-yl}phenyl)acetamide [Form II]
Solubility ([1]; Acetone): 6873 µg/mL | Solubility ([1]; Acetonitrile): 8928 µg/mL | Solubility ([1]; De-ionized water): 18.8 µg/mL | Solubility ([1]; Diethyl ether): 51 µg/mL | Solubility ([1]; Ethanol, absolute (100%)): 1722 µg/mL | Solubility ([1]; Ethyl acetate): 2160 µg/mL | Solubility ([1]; Hexane): 50 µg/mL | Solubility ([1]; Isopropanol): 457 µg/mL | Solubility ([1]; Methanol): 1915 µg/mL | Solubility ([1]; Polyethylene Glycol 400, NF): 10100 µg/mL | Solubility ([1]; Tetrahydrofuran): 14740 µg/mL | Solubility ([1]; Toluene): 645 µg/mL | Water solubility, in words ([1]; compared with Form I): superior water solubility over Form I
